Data set [1] can be described thus: Grain size distribution by laser-type grain size analyzer (Microtrac FRA). The format is physicochemical. The note with it: crystals dispersed in aqueous Soprophor FL; for Average grain size 10%: 10% point of grain size distribution; for Average grain size 50%: 50% point of grain size distribution; for Average grain size 90%: 90% point of grain size distribution. As to the method: Grain size distributions of the crystals obtained in Example 1 and Comparative Example 1 were measured. A laser-type grain size analyzer (Microtrac FRA) was used. A 1% aqueous solution of Soprophor FL (3 ml, Rhone-Poulenc) was added with water (15 ml), and an appropriate amount of the crystals obtained in Example 1 or Comparative Example 1 were dispersed in the mixture to obtain a sample dispersion.

For data set [2] the following is noted: background art statement, no method given; cited from earlier work.

Molecules are shown by their SMILES.

Turning to `CC1(C)CCC(C)(C)c2cc(NC(=O)c3ccc(C(=O)O)cc3)ccc21` [Ethanol/water, 4-[(5,6,7,8-Tetrahydro-5,5,8,8-tetramethyl-2-naphthalenyl)carbamoyl]benzoic acid], in data set [1], the “Average grain size 10%” value came out at 16.38 μm, the “Average grain size 50%” value turned out to be 39.74 μm and the “Average grain size 90%” value was 86.92 μm.
Consider `CC1(C)CCC(C)(C)c2cc(NC(=O)c3ccc(C(=O)O)cc3)ccc21` [Methanol/water, 4-[(5,6,7,8-Tetrahydro-5,5,8,8-tetramethyl-2-naphthalenyl)carbamoyl]benzoic acid, reference compound], for which, in data set [1], the “Average grain size 10%” value came out at 42.74 μm, the “Average grain size 50%” value came out at 96.29 μm and the “Average grain size 90%” value was determined as 268.75 μm.
With `CC1(C)CCC(C)(C)c2cc(NC(=O)c3ccc(C(=O)O)cc3)ccc21` [crystal that melts at 193° C., 4-[(5,6,7,8-tetrahydro-5,5,8,8-tetramethyl-2-naphthalenyl)carbamoyl]benzoic acid, reference compound], the “stability of crystalline form against physical impact” value in data set [2] is on record as “crystalline form readily occurs transition by physical impact”.
With `CC1(C)CCC(C)(C)c2cc(NC(=O)c3ccc(C(=O)O)cc3)ccc21` [crystal that melts at 233° C., 4-[(5,6,7,8-tetrahydro-5,5,8,8-tetramethyl-2-naphthalenyl)carbamoyl]benzoic acid], in data set [2], the “stability against heat, temperature, light and the like” value is listed as “high stability”; the “stability of crystalline form against physical impact” value is on record as “high stability”.

Values taken from patent publication US20030191342A1, “Process for the production of crystals of a benzoic acid derivative” (priority 2000, published 2003).
